Consider two compounds from PMC6814236, “Monitoring and characterizing soluble and membrane-bound ectonucleotidases CD73 and CD39” (PLoS ONE, 2019).

Assay [1] addresses T1, Recombinant Human 5'-Nucleotidase/CD73 (Homo sapiens, UniProt P21589).
T1 construct: purchased R&D Systems
T1 sequence (P21589 27-574): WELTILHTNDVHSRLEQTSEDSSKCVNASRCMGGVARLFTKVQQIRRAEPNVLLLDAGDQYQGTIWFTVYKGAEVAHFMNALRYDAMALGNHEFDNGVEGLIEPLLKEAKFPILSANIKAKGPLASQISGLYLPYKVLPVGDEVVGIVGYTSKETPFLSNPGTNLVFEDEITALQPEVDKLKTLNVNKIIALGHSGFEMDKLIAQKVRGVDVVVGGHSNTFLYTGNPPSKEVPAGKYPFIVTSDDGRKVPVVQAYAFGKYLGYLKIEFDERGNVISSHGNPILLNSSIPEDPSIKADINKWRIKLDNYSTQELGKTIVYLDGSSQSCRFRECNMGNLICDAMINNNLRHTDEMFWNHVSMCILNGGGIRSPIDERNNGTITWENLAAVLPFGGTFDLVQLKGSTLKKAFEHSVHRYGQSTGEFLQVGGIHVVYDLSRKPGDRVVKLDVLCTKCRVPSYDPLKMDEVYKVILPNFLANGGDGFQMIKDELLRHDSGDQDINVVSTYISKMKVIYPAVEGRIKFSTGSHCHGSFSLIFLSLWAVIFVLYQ
In words: Enzyme activity of purified CD73 (AMP-Glo assay). It counts as biochemical. As to the method:
• Determination of enzyme activity of purified CD73. In a 25 μl reaction buffer (10mM HEPES, pH 7.4, 2mM MgCl2, 1mM CaCl2, and 0.1mg/ml BSA) containing enzyme and AMP substrate at 1μM to 10μM (96-well format), enzyme activity was performed at 23°C for specified time period and terminated by the addition of equal volume (25μl) of AMP-Glo™ Reagent I containing 50 μM (final concentration) of known CD73 inhibitor, such as AMPCP. Reactions were mixed well and incubated for additional 30 min at 23°C. This was followed by the addition of 50 μl of AMP Detection Solution (10μl of AMP-Glo™ Reagent II per ml of Kinase-Glo® One Solution) and incubated for additional 60 min at 23°C before reading luminescence.

The next assay addresses T2, CD39 (His-Tag Human) (Homo sapiens, UniProt P49961).
T2 construct: His; purchased R&D Systems
T2 sequence (P49961 1-510): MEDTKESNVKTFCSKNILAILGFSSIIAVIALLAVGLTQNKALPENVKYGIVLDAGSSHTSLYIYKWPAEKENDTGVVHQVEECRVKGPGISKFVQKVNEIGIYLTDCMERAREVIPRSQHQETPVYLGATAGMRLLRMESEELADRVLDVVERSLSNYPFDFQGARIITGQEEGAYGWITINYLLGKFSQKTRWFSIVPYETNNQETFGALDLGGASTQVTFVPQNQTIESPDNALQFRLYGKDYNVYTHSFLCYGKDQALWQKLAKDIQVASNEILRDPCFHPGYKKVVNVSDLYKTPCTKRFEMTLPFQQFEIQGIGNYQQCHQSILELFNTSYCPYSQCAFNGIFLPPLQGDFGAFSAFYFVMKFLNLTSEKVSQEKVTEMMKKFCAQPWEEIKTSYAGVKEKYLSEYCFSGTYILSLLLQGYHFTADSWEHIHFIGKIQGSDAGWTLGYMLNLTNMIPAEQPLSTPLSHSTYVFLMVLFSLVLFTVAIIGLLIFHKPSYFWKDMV
As to the kind of experiment: Enzyme activity of purified CD39 with ATP or ADP as substrate. It counts as biochemical. The note with it: 0.1ng CD39, 10 μM ATP or 10 μM ADP, 30min at 37°C. As to the method: • 2 Determination of enzyme activity of purified cytosolic cN-II. Activity of purified cN-II (Human cytosolic 5'-Nucleotidase) was determined using 25μl reaction buffer (50mM HEPES, pH 7.0, 100mM KCl, 20mM MgCl2, 5mM DTT, 2.5mM dATP, and 0.1mg/ml BSA) containing enzyme and AMP substrate at 10μM (96-well format). Reaction continued at 37°C for 60 minutes or for a certain time period and terminated by the addition of equal volume (25μl) of AMP-Glo™ Reagent I. Reactions were mixed well and incubated for additional 30 min at 23°C. This was followed by the addition of 50 μl of AMP Detection Solution (10μl of AMP-Glo™ Reagent II per ml of Kinase-Glo® One Solution) and incubated for additional 60 min at 23°C before reading luminescence. • 3 Determination of enzyme activity of purified CD39. […] When ATP is used as a substrate, an equal volume of Kinase-Glo® One Solution was added to CD39 reactions and incubated for 15 min before reading luminescence using a luminometer. When ADP is used as a substrate for CD39, after enzyme reaction completion, an equal volume of AMP Detection Solution with a known CD39 known inhibitor, such as POM 1 at 50μM final concentration was added. Reactions were mixed well and incubated for 60min before reading luminescence using luminometer. For enzyme dilution, reaction buffer can be used for dilution of enzymes.

Take `Nc1ncnc2c1ncn2[C@@H]1O[C@H](COP(=O)(O)O)[C@@H](O)[C@H]1O` [AMP, adenosine monophosphate]: in assay [1] (0.01ng CD73 per reaction, varying AMP, 5min at 23°C), the Km was determined as 2.53 µM. For `CCN(CC)c1ncnc2c1ncn2[C@@H]1O[C@H](COP(=O)(O)OP(=O)(O)C(Br)(Br)P(=O)(O)O)[C@@H](O)[C@H]1O.[Na+].[Na+].[Na+]` [ARL 67156, 6-N,N-Diethyl-D-β,γ-dibromomethyleneATP trisodium salt], in assay [1] (purified CD73, 0.1ng, 1μM AMP, 5 min at 23°C (Fig 6)), the “effect on CD73 enzyme activity” value is “no effect”. On CD39 (His-Tag Human), the “inhibitory effect on purified CD39” value was “inhibited”.
